This note sets out measurements from patent US20260240842A1, “METHODS TO PREVENT THERAPY RESISTANCE IN MELANOMA VIA BLOCKING GENOMIC INSTABILITY” (THE REGENTS OF THE UNIVERSITY OF CALIFORNIA, priority 2022, published 2026).

Molecules are shown by their SMILES.

The subject of this assay is M229 and M245 cell lines. Description: WGS of short-term treated cell lines: treatment-specific ecDNA+CGR genomic spans. It counts as cell-based, human. The conditions noted are these: co-treatment with MAPKi for 10 to 11 days, FIG. 5H. The text has this:
FIGS. 5A-5H. Resistance-driver ecDNAs and HSRs dynamically track with resistance and DNA-PKi prevents size-expansion of ecDNAs and CGRs early on MAPKi treatment. FIGS. 5A to 5C, Metaphase DNA-FISH of paired parental and acquired resistant BRAF^V600MUT (5A and 5B) or NRAS^Q61MUT (5C) cell lines without or with drug withdrawal showing ecDNA- or HSR-amplicons harboring BRAF, RAF1 or NRAS. Left, representative images; right, quantifications per cell. Ruler, 15 μm. P values (Unpaired two-tailed Student's t-test): *, p<0.05; **, p<0.01; ***, p<0.001. […] FIG. 5G: Representative images (left) and quantification (right) of metaphase DNA-FISH showing HSR harboring BRAF in M249 cells treated with vehicle or BRAFi+MEKi, with or without NU7026 and/or ABT888 for 31 days. […] FIG. 5H: Average total genomic spans of treatment-specific ecDNAs+CGRs in M229 and M245 cell lines (background ecDNA+CGR spans detected in vehicle-treated cells were filtered). […]
Genomic DNA (gDNA) and total RNA were extracted from frozen tumor tissue preserved in RNALater or snap-frozen tumor tissue using the QIAGEN AllPrep DNA/RNA Mini Kit and the Ambion mirVana miRNA Isolation Kit. […] After library construction, indexed libraries were quantified for equal molar pooling and paired-end sequenced with a read length of 2×150 bp on the Illumina NovaSeq 6000 S4 platform. […]

With `O=c1cc(N2CCOCC2)oc2c1ccc1ccccc12` [NU7026], the “MAPKi-elicited treatment-specific ecDNA+CGR genomic spans” value is listed as “blunted the expansion of ecDNA+CGR genomic spans in both cell lines”.
